Laboratory results: patent publication US10626107B2, “Crystal form, salt type of substituted 2-hydro-pyrazole derivative and preparation method therefor” (CHIA TAI TIANQING PHARMACEUTICAL GROUP CO., LTD., priority 2016, dated 2020)
pIC50: −log10 of the molar value. Read-outs that look alike come from different tables or passages of the source. Blank lines part the entries; values can stand above or below the compound they belong to.

What was measured:
[1] = tested on: MCF-7 breast cancer cells; test: Inhibition assay of the A crystal form of WX_1 on MCF-7 breast cancer cell proliferation (CellTiter-Glo); assay type: cell-based; conditions: Homo sapiens, MCF7, 144 h; MCF-7 cells, 6 days
Method: (§1) RPMI 1640 medium, fetal bovine serum and penicillin/streptomycin as antibiotics were purchased from Promega (Madison, Wis.). The MCF-7 cell line was purchased from the European Collection of Authenticated Cell Cultures (ECACC). Envision MultiLabel Plate Reader (PerkinElmer).
(§2) MCF-7 cells were seeded in a black 384-well plate with 45 μL of cell suspension (containing 200 MCF-7 cells) per well. The cell plate was placed in a carbon dioxide incubator for overnight culture.
(§3) The test compounds were diluted 3 times to the 10th concentration with Bravo, i.e., diluted from 10 μM to 0.508 nM, and a duplicate-well experiment was set. The medium was added to the middle plate in an amount of 49 μL per well. The gradient-diluted compounds were transferred in an amount of 1 μL per well to the middle plate according to the corresponding positions, and the mixture was mixed evenly and transferred to the cell plate in an amount of 5 μL per well. The cell plate was incubated in a carbon dioxide incubator for 6 days.
Promega CellTiter-Glo reagent was added to the cell plate in an amount of […] per well, and incubated for 10 minutes at room temperature to stabilize the luminescence signal. Reading was performed using a PerkinElmer Envision Multilabel Plate Reader.

[2] = tested on: human breast cancer MCF-7 subcutaneous xenograft tumor; assay type: in vivo
Description: Cell line-derived xenograft (CDX) BALB/c nude mice that were female, 6- to 8-week old, weighed 20 g, and subcutaneously implanted with human tumor cell line derived from MCF-7 breast cancer patients were used. A total of 150 mice were needed, which were purchased from Beijing Vital River Laboratory Animal Technology Co., Ltd.
BALB/c nude mice that were female, 6- to 8-week old, and weighed approximately 20 g were used. The mice were maintained in separate ventilated cages (10 mice per cage) in a special pathogen-free environment. All the cages, bedding and water were disinfected prior to use. All the animals were free to access a standard certified commercial laboratory diet. A total of 150 mice were purchased from Beijing Vital River Laboratory Animal Technology Co., Ltd. for research. Each mouse was implanted subcutaneously with an estrogen tablets (0.18 mg/tablet, 60-day sustained release) in the left back. After 3 days, each mouse was implanted with tumor cells (10×10^6 in 0.2 mL of phosphate buffer) subcutaneously in the right back for tumor growth. Administration was started when the average tumor volume reached about 150 to 200 mm^3. The test compounds were orally administered daily, and the administration dosages were as shown in the above table. The tumor volumes were measured twice a week using a two-dimensional caliper. The volumes were expressed in cubic millimeters and calculated by the following formula: V=0.5 a×b^2, wherein a and b were the long diameter and short diameter of a tumor, respectively. The anti-tumor efficacy was determined by dividing the average increase of the tumor volumes of the animals treated with a compound by the average increase of the tumor volumes of the animals without being treated with the compound.

[3] = tested on: human lung cancer LU-01-0393 subcutaneous xenograft tumor; test: In vivo drug efficacy study (II): human lung cancer LU-01-0393 subcutaneous xenograft tumor model; set-up: species or system BALB/c nude mice; conditions: 120.0 mg/kg PO QD × 3W
Description: Cell line-derived xenograft (CDX) BALB/c nude mice that were female, 6- to 8-week old, weighed 17 to 20 g, and subcutaneously implanted with human tumor cell line derived from LU-01-0393 lung cancer patient were used. A total of 72 mice were needed and were purchased from Shanghai Xipuer-Bikai Experimental Animal Co., Ltd. Human lung cancer LU-01-0393 tumor (i.e., non-small cell lung cancer) was originally derived from a clinical sample of a surgical resection. It was defined as passage PO after being inoculated to nude mice, and the tumor of passage PO was re-inoculated to nude mice and was then defined as passage P1, and so forth. Passage was performed in nude mice. LU-01-0393-FP5 was obtained from the transplantation after the recovery of P4. This study would use the tumor tissue of passage FP6.
BALB/c nude mice that were female, 6- to 8-week old, and weighed approximately 17 to 20 g were used. The mice were maintained in separate ventilated cages in a special pathogen-free environment. All the cages, bedding and water were disinfected prior to use. All the animals were free to access a standard certified commercial laboratory diet. A total of 72 mice purchased from Shanghai Xipuer-Bikai Experimental Animal Co., Ltd. were used for the study. The LU-01-0393 FP6 tumor tissue was cut to 20 to 30 mm^3 and inoculated to the right back of each mouse to wait for the tumor growth. When the average tumor volume reached about 171 mm^3, the mice were randomized into groups and administered. The test compounds were orally administered daily, and the administration dosages were as shown in the above table. The tumor diameters were measured twice a week using a two-dimensional caliper. The tumor volumes were calculated by the following formula: V=0.5 a×b^2, wherein a and b were the long diameter and the short diameter of a tumor, respectively. The anti-tumor efficacy was determined by dividing the average increase of the tumor volumes of the animals treated with a compound by the average increase of the tumor volumes of the animals without being treated with the compound.

[4] = Solubility tests in different vehicles (HPLC); assay type: physicochemical; conditions: 26 °C, thermodynamic from solid, room temperature 25 to 27° C.
Method: Samples (about 2 mg) (if the sample was a salt, the required amount of the salt was calculated according to the salt factor in accordance with the criterion that the compound of formula (I) was 2 mg) were weighed respectively and added to a 1.5 mL glass vial. Different vehicles (1 mL) were then added respectively. The above-mentioned suspension was placed on a magnetic stirrer for stirring (room temperature 25 to 27° C.). After stirring for 24 hours, samples were taken. The samples were first centrifuged, and the supernatants were taken. After appropriate dilution according to the situation of the dissolution, the concentrations were determined by HPLC. The results were as follows:
Notes: • FaSSIF: to simulate the intestinal fluid in the small intestine of human in a hunger state before meal; • FeSSIF: to simulate the intestinal fluid in the small intestine of human in a full state after meal; • SGF: to simulate the gastric juice in the empty stomach of human in a hunger state

MCF-7 cells = test: Inhibition assay of the compound of formula (I) on the proliferation of MCF-7 cells (CellTiter-Glo); assay type: cell-based; conditions: Homo sapiens, MCF7, 144 h, 6 days
Method: as §1, with “and the MDA-MB-436 cell line were” for “was”, “Multilabel” for “MultiLabel”
as §2, §3
(§4) Promega CellTiter-Glo reagent was added to the cell plate in an amount of 25 μL per well, and incubated for 10 minutes at room temperature to stabilize the luminescence signal. Reading was performed using a PerkinElmer Envision Multilabel Plate Reader.

MDA-MB-436 cells = test: Inhibition assay of the compound of formula (I) on the proliferation of MDA-MB-436 cells (CellTiter-Glo); assay type: cell-based; conditions: Homo sapiens, 144 h, 6 days
Method: as §1, with “and the MDA-MB-436 cell line were” for “was”, “Multilabel” for “MultiLabel”
MDA-MB-436 cells were seeded in a black 384-well plate with 45 μL of cell suspension (containing 585 MDA-MB-436 cells) per well. The cell plate was placed in a carbon dioxide incubator for overnight culture.
as §3, §4

SMILES: CCN1CCN(Cc2ccc(Nc3ncc(F)c(-c4cc(F)c5nc(C)n(C(C)C)c5c4)n3)nc2)CC1 [LY2835219, Abemaciclib]
pIC50 [1]: 6.73 | Tumor volume Day 0 ([2]; 25.0 mg/kg PO QD × 3W): 153 mm^3 | Tumor volume Day 7 ([2]; 25.0 mg/kg PO QD × 3W): 155 mm^3 | Tumor volume Day 0 [3]: 172 ± 23 mm^3 | Tumor volume Day 7 [3]: 228 ± 26 mm^3 | Tumor volume Day 14 [3]: 255 ± 30 mm^3 | Tumor volume Day 21 [3]: 272 ± 36 mm^3

SMILES: CC(=O)c1c(C)c2cnc(Nc3ccc(N4CCNCC4)cn3)nc2n(C2CCCC2)c1=O [Palbociclib]
pIC50 [1]: 7.05 | Tumor volume Day 0 ([2]; 25.0 mg/kg PO QD × 3W): 153 mm^3 | Tumor volume Day 7 ([2]; 25.0 mg/kg PO QD × 3W): 203 mm^3 | Tumor volume Day 14 ([2]; 25.0 mg/kg PO QD × 3W): 252 mm^3 | Tumor volume Day 20 ([2]; 25.0 mg/kg PO QD × 3W): 222 mm^3 | Tumor volume Day 0 ([2]; 50.0 mg/kg PO QD × 3W): 153 mm^3 | Tumor volume Day 7 ([2]; 50.0 mg/kg PO QD × 3W): 180 mm^3 | Tumor volume Day 14 ([2]; 50.0 mg/kg PO QD × 3W): 197 mm^3 | Tumor volume Day 20 ([2]; 50.0 mg/kg PO QD × 3W): 137 mm^3 | tolerability ([2]; mouse, in vivo): intolerable | Tumor volume Day 0 [3]: 170 ± 24 mm^3 | Tumor volume Day 7 [3]: 261 ± 38 mm^3 | Tumor volume Day 14 [3]: 266 ± 41 mm^3 | Tumor volume Day 21 [3]: 251 ± 34 mm^3

SMILES: CC(C)c1c2cc(-c3nc(Nc4ccc(N5CCNCC5)cn4)ncc3F)ccc2nn1C [compound of formula (I)]
solubility at 24 h ([4]; simulated gastric fluid, SGF, read-out: Solubility SGF): > 2000 µg/mL | solubility at 24 h ([4]; FaSSIF, read-out: Solubility FaSSIF): 13 µg/mL | solubility at 24 h ([4]; FeSSIF, read-out: Solubility FeSSIF): 1600 µg/mL | solubility at 24 h ([4]; water, water, H2O, read-out: Solubility H2O): 10 µg/mL | pIC50 (MCF-7 cells): 7.49 | pIC50 (MDA-MB-436 cells): 6.48

pIC50 (MCF-7 cells): 6.62 | pIC50 (MDA-MB-436 cells): 5.68
SMILES: CCN1CCN(Cc2ccc(Nc3ncc(F)c(-c4ccc5nn(C)c(C(C)C)c5c4)n3)nc2)CC1 [compound of formula (a), reference compound]
